Experimental findings from US20110236330A1, “Skin Whitening” (priority 2008, published 2011) are described below.

Series [1] deals with Melanocytes (B16 cell line). Kind of series: Melanogenesis inhibition assay (melanin level and cellular protein level). It counts as cell-based. The conditions noted are these: 3 days incubation; for Protein level: cellular proteins (Bradford) as number of viable cells; for Melanin level: optical density at 475 nm. How it is done:
Melanocytes (B16 cell line) are inoculated in standard medium of cell culture with fetal calf serum (FCS). After an incubation of 3 days at 37° C. and CO2=5%, growth medium is exchanged for standard medium with a range of concentrations for each compound to be tested and a control without ingredient. After an incubation of 3 days, the level of melanin is measured by recording the optical density at 475 nm. After washing the cells by a balanced salt, and homogenization in a solution of 0.1 M NaOH, the number of viable cells is determined by the level of cellular proteins (Bradford's method).
The results are expressed in % against control (cell culture medium without compound) as a mean on 2 to 3 assays, each in triplicate.

Series [2] is described as follows: Stability assay (visual coloration of solutions on storage). Type of series: physicochemical. The following applies: for Coloration: room temperature, aqueous buffer:ethanol 1:1, away from day light; for Stability in protic solution: up to 120 days of incubation. Also noted: key to Coloration: —: no coloration; +: moderate coloration; ++: strong coloration. How it is done:
5-hydroxy-L-tryptophan, 6-fluoro-DL-tryptophan, 4-methyl-DL-tryptophan were dissolved at 1 or 10 mg/ml in a solution aqueous buffer at ph 5.5 and pH 7 (citric acid 0.1 M, Na2HPO4 0.2 M):ethanol 1:1 vol:vol. The solutions are kept away from day light and stored at room temperature. After 30, 60 and 120 days, the coloration of the solutions are visually assessed.

As to `Cc1cccc2[nH]cc(CC(N)C(=O)O)c12` (racemic) [4-Methyl-DL-Tryptophan], the Protein level in series [1] (dose 0.001 % (w/v)) turned out to be 97 %/control; in series [1] (dose 0.003 % (w/v)) it was 100 %/control. The Melanin level was 56 %/control in series [1] (dose 0.001 % (w/v)) and 33 %/control in series [1] (dose 0.003 % (w/v)). Also, the Coloration result in series [2] (pH 5.5, 30 days) is on record as “—”; in series [2] (pH 5.5, 60 days) it was “—”; in series [2] (pH 5.5, 120 days), “—”; in series [2] (pH 7.0, 30 days), “—”; in series [2] (pH 7.0, 60 days), “—”; in series [2] (pH 7.0, 120 days), “—”. Further, in series [2] (pH 5.5 and 7), the “Stability in protic solution” value is listed as “high stability”.
In series [1] (dose 0.001 % (w/v)), `COc1ccc2[nH]cc(CC(N)C(=O)O)c2c1` (racemic) [5-Methoxy-DL-Tryptophan] yielded a Protein level of 96 %/control and a Melanin level of 90 %/control. Also, in series [1] (dose 0.003 % (w/v)), the Protein level is recorded as 92 %/control and the Melanin level turned out to be 65 %/control.
Consider `NC(Cc1c[nH]c2cc(F)ccc12)C(=O)O` (racemic) [6-Fluoro-DL-Tryptophan], for which the results for the Protein level in series [1] (dose 0.001 % (w/v)) and in series [1] (dose 0.003 % (w/v)) were 106 %/control and 108 %/control, respectively. Also, the figures for the Melanin level in series [1] (dose 0.001 % (w/v)) and in series [1] (dose 0.003 % (w/v)) were 44 %/control and 10 %/control, respectively. For the same compound, the Coloration entry is “—” in series [2] (pH 5.5, 30 days); “—” in series [2] (pH 5.5, 60 days); “—” in series [2] (pH 5.5, 120 days); “—” in series [2] (pH 7.0, 30 days); “—” in series [2] (pH 7.0, 60 days); “—” in series [2] (pH 7.0, 120 days). For the same compound, the “Stability in protic solution” value in series [2] (pH 5.5 and 7) is recorded as “high stability”.
In series [1] (dose 0.003 % (w/v)), `Cc1ccc2c(CC(N)C(=O)O)c[nH]c2c1` (racemic) [6-Methyl-DL-Tryptophan] yielded a Protein level of 102 %/control and a Melanin level of 81 %/control. For the same compound, in series [1] (dose 0.01 % (w/v)), the Protein level was found to be 100 %/control and the Melanin level amounted to 39 %/control.
As for `N[C@@H](Cc1c[nH]c2ccc(O)cc12)C(=O)O` [5-hydroxy-L-tryptophan, 5-Hydroxy-L-Tryptophan, reference compound], the “Coloration of the solution (in words)” value in series [2] (at 30 days, protic solution, pH 5.5 and 7) is given as “visible dark-brown coloration”. Besides, the Coloration entry in series [2] (pH 5.5, 30 days) is “++”; in series [2] (pH 5.5, 60 days), “++”; in series [2] (pH 5.5, 120 days) it was “++”; in series [2] (pH 7.0, 30 days), “++”; in series [2] (pH 7.0, 60 days), “++”; in series [2] (pH 7.0, 120 days), “++”.
